Results on 7 compounds are retold here after patent US6596773B2, “Phenyl substituted pyridine and benzene derivatives” (Hoffmann-La Roche Inc., priority 1999, dated 2003).

The melting point is the temperature, or range, at which the solid turns liquid.

Structures are written as SMILES.

The target in series [1] is T1, human NK1 receptor (Homo sapiens, UniProt P25103).
T1 construct: expressed in transfected cells; host or cells: CHO cells infected using the Semliki virus expression system; membrane suspension
The experiment in a line: NK1 receptor binding assay, displacement of [3H]substance P. Conditions: human NK1 receptors in CHO cells (Semliki virus expression system), [3H]substance P 0.6 nM, 60 min at room temperature; read-out: affinity to the NK-1 receptor, given as pKi (converted). Here is the method:
The affinity of test compounds for the NK1 receptor was evaluated at human NK1 receptors in CHO cells infected with the human NK1 receptor (using the Semliki virus expression system) and radiolabelled with [3H]substance P (final concentration 0.6 nM). Binding assays were performed in HEPES buffer (50 mM, pH 7.4) containing BSA (0.04%) leupeptin ([…]), MnCl2 (3 mM) and phosphoramidon ([…]). Binding assays consisted of […] of membrane suspension (1.25×10^5 cells/assay tube), 0.125 ml of buffer of displacing agent and […] of [3H]substance P. Displacement curves were determined with at least seven concentrations of the compound. The assay tubes were incubated for 60 min at room temperature after which time the tube contents were rapidly filtered under vacuum through GF/C filters presoaked for 60 min with PEI (0.3%) with 2×2 ml washed of HEPES buffer (50 mM, pH 7.4). The radioactivity retained on the filters was measured by scintillation counting. All assays were performed in triplicate in at least 2 separate experiments.
On the technique in general: Displacement assays read how much labelled ligand stays bound in the presence of the test substance.

T1 sequence (P25103 whole entry): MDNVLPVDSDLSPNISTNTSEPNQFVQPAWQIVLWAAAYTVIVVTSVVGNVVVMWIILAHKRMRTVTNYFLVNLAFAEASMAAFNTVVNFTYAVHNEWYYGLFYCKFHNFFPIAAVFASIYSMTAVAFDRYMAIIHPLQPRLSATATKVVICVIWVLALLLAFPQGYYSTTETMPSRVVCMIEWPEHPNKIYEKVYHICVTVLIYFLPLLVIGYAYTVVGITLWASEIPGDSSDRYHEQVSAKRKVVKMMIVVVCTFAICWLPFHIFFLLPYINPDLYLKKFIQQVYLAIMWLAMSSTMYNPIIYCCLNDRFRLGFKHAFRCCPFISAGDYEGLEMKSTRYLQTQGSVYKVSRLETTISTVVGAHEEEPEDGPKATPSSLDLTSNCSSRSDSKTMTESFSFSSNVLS

Consider `CN(Cc1cc(C(F)(F)F)cc(C(F)(F)F)c1)C(=O)c1cnc(N2CCOCC2)cc1Oc1ccccc1` [Example 28, N-(3,5-Bis-trifluoromethyl-benzyl)-N-methyl-6-morpholin-4-yl-4-phenoxy-nicotinamide], for which, in series [1], the Ki was 13.8 nM.

Consider `CN1CCN(c2cc(Oc3ccccc3Cl)c(C(=O)N(C)Cc3cc(C(F)(F)F)cc(C(F)(F)F)c3)cn2)CC1` [Example 30, N-(3,5-Bis-trifluoromethyl-benzyl)-4-(2-chloro-phenoxy)-N-methyl-6-(4-methyl-piperazin-1-yl)-nicotinamide], for which the Ki in series [1] is 3.8 nM.

Consider `CN(Cc1cc(C(F)(F)F)cc(C(F)(F)F)c1)C(=O)c1cnc(N2CCOCC2)cc1Oc1ccccc1Cl` [Example 29, N-(3,5-Bis-trifluoromethyl-benzyl)-4-(2-chloro-phenoxy)-N-methyl-6-morpholin-4-yl-nicotinamide], for which the Ki in series [1] is 1.74 nM.

Turning to `Cc1ccccc1Oc1cc(N2CCOCC2)ncc1C(=O)N(C)Cc1cc(C(F)(F)F)cc(C(F)(F)F)c1` [Example 31, N-(3,5-Bis-trifluoromethyl-benzyl)-N-methyl-6-morpholin-4-yl-4-o-tolyloxy-nicotinamide], the Ki in series [1] is 2.75 nM.

Turning to `CN1CCN(c2cc(C(=O)c3ccccc3Cl)c(C(=O)N(C)Cc3cc(C(F)(F)F)cc(C(F)(F)F)c3)cn2)CC1.Cl`, the melting point was 145 °C (dec.).

Compound `CN(C(=O)C(C)(C)c1cc(C(F)(F)F)cc(C(F)(F)F)c1)c1ccc(Cl)cc1C(=O)c1ccccc1` [Example 2, N-(2-Benzoyl-4-chloro-phenyl)-2-(3,5-bis-trifluoromethyl-phenyl)-N-methyl-isobutyramide] showed a melting point of 89 to 91 °C.

In the case of `CN1CCN(c2cc(C(=O)c3ccccc3)c(C(=O)N(C)Cc3cc(C(F)(F)F)cc(C(F)(F)F)c3)cn2)CC1.Cl`, the melting point was 105 °C (dec.).
